From patent publication US20250163065A1, “PYRROLOTRIAZINONE COMPOUND, PHARMACEUTICAL COMPOSITION COMPRISING SAME, PREPARATION METHOD THEREFOR, AND USE THEREOF” (SHANGHAITECH UNIVERSITY, priority 2022, published 2025)
Like-named read-outs stand apart in the source and are kept apart here. One block for each compound: values may come before it.

How the values were obtained:
[1] = tested on: BALB/c mice; test: Social interaction experiment in BALB/c mice (negative symptoms of schizophrenia); type: in vivo; conditions: for Social time: 10-minute period
From the text: The experimental subjects were 6-week-old male BALB/c wild-type mice, weighing approximately 22 grams, purchased from Shanghai Lingchang Biotechnology Co., Ltd. They were housed in SPF-grade breeding facilities, with 2 mice per cage, under a 12-hour light/dark cycle, with free access to food and water. All behavioral experiments in this project were completed during the light cycle. The experiment adhered to all relevant regulations and guidelines for animal welfare and ethics, and was supervised and inspected by the ethics committee and laboratory animal managers.
The length, width, and height of the behavioral box used in this experiment were all 40 cm. During the experiment, 4 mice were tested in 4 behavioral boxes at the same time. In this experiment, Etho Vision XT was used for experimental setup and video recording.
The mice were 5 weeks old when purchased. After one week of observation, the experiment was started when they were 6 weeks old and weighed about 22 grams. Before each experiment, the experimental mice were restricted from eating 18 hours in advance. On the day of the experiment, the mice were transferred to the behavioral laboratory to familiarize themselves with the environment 1 hour in advance. Subsequently, they were administered by intraperitoneal injection, and each mouse was returned to its original cage after injection. After 20 minutes, the experimental mice were placed in the behavioral box to acclimate for 10 minutes. Then, a stimulus mouse (from the same batch of BALB/c) was placed in a corner of the behavioral box, away from the experimental mouse. The two mice were allowed to explore freely for 10 minutes while their activity was monitored and recorded by a camera, and the data was archived.
The experimental data were analyzed. The social interaction time (including approaching, sniffing, grooming, chasing, attacking, etc.) was calculated for each experimental mouse over a 10-minute period, and the total social time of each mouse across different groups was analyzed by one-way analysis of variance.

[2] = Pharmacokinetics and brain distribution in mice after single intraperitoneal injection; type: in vivo, male C57 mice; conditions: mouse, 10 mg/kg intraperitoneal; for Tmax / half-life / Cmax: C57, ip
[3] = molecular target: GPR139 (Homo sapiens (Human), UniProt Q6DWJ6); test: Agonistic activity on GPR139, calcium flux detection assay (FLIPR) in transfected CHO-K1 cells; type: cell-based; conditions: for Emax: CHO-K1; for EC50: calcium flux, CHO-K1 cells transfected with GPR139 plasmid, mean ± standard deviation
GPR139, sequence (Q6DWJ6 whole entry, species assumed): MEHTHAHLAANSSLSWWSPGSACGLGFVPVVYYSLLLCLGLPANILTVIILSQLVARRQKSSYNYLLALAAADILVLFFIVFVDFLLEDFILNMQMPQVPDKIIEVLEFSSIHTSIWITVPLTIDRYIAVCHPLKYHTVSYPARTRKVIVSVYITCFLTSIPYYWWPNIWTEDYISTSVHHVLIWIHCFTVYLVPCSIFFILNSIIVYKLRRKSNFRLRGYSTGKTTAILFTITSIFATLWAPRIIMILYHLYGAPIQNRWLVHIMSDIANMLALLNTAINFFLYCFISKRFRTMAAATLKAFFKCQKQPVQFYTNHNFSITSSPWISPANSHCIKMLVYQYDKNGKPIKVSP

[4] = male, brain tissue, mean n=3, read-out: tmax Brain
[5] = male, plasma, mean n=3, read-out: tmax Plasma
[6] = male, brain tissue, mean n=3, read-out: T1/2 Brain (converted)
[7] = male, plasma, mean n=3, read-out: T1/2 Plasma (converted)

SMILES: C[C@H](NC(=O)Cn1nnc2ccccc2c1=O)c1ccc(OC(F)(F)F)cc1 [TAK-041, reference compound]
Social time ([1]; 1 mg/kg intraperitoneal): 93 ± 26 s | Social time ([1]; 3 mg/kg intraperitoneal): 129 ± 28 s | Kp ([2]; male, C57, brain and plasma, ip): 0.892 | Tmax [2, 4]: 30 min | Tmax [2, 5]: 360 min | Cmax Brain ([2]; brain tissue, mean n=3): 6754 ng/g | T1/2 Brain ([2]; brain tissue, mean n=3): 108 h | Cmax Plasma ([2]; plasma, mean n=3): 7057 ng/g

Emax [3]: 92% | EC50 [3]: 120 nM
SMILES: CC(C)[C@H](NC(=O)Cn1ncc2cccn2c1=O)c1ccc(F)cc1 [Compound I-37, (S)—N-(1-(4-fluorophenyl)-2-methylpropyl)-2-(4-oxopyrrolo[1,2-d][1,2,4]triazin-3(4H)yl)acetamide]

EC50 [3]: 56 ± 11 nM
SMILES: Cc1cc(C)n2c(=O)n(CC(=O)N[C@@H](C)c3ccc(Cl)cc3)ncc12 [Compound I-22, (S)—N-1-(4-chlorophenyl)ethyl-2-(6,8-dimethyl-4-oxopyrrolo[1,2-d][1,2,4]triazin-3(4H)yl)acetamide]

half-life [2, 6]: 19.2 min | Tmax [2, 4]: 30 min | Cmax ([2]; male, plasma, mean n=3): 700 ng/g | half-life [2, 7]: 42 min | Tmax [2, 5]: 30 min | Cmax Brain ([2]; brain tissue, mean n=3): 713 ng/g
SMILES: C[C@H](NC(=O)Cn1ncc2cccn2c1=O)c1ccc(F)cc1 [Compound I-1]

half-life [2, 6]: 31.8 min | Tmax [2, 4]: 30 min | Cmax ([2]; male, plasma, mean n=3): 868 ng/g | half-life [2, 7]: 31.2 min | Tmax [2, 5]: 30 min | Cmax Brain ([2]; brain tissue, mean n=3): 1264 ng/g
SMILES: C[C@H](NC(=O)Cn1ncc2cccn2c1=O)c1ccc(C(F)(F)F)cc1 [Compound I-32, (S)-2-(4-oxopyrrolo[1,2-d][1,2,4]triazin-3(4H)yl)-N-(1-(4-(trifluoromethyl)phenyl)ethyl)acetamide]

Emax [3]: 94% | EC50 [3]: 26 nM
SMILES: Cc1ccc2cnn(CC(=O)N[C@H](c3ccc(F)cc3)C(C)C)c(=O)n12 [Compound I-39, (S)—N-(1-(4-fluorophenyl)-2-methylpropyl)-2-(6-methyl-4-oxopyrrolo[1,2-d][1,2,4]triazin-3(4H)yl)acetamide]

SMILES: C[C@H](NC(=O)Cn1ncc2cccn2c1=O)c1ccc(OC(F)(F)F)cc1 [Compound I-5, (S)-2-(4-oxopyrrolo[1,2-d][1,2,4]triazin-3(4H)yl)-N-(1-(4-(trifluoromethoxy)phenyl)ethyl)acetamide]
One-way analysis of variance (social time) ([1]; 0.3 mg/kg intraperitoneal): No difference | Social time ([1]; 0.3 mg/kg intraperitoneal): 107 ± 15 s | One-way analysis of variance (social time) ([1]; 1 mg/kg intraperitoneal): No difference | Social time ([1]; 1 mg/kg intraperitoneal): 103 ± 17 s | Social time ([1]; 3 mg/kg intraperitoneal): 129 ± 12 s | Effect on social disorders in mice ([1]; dose of 3 mg/kg): significant improvement effect

EC50 [3]: 111 ± 4 nM
SMILES: C[C@H](NC(=O)Cn1ncc2cccn2c1=O)c1ccccc1 [Compound I-4, (S)-2-(4-oxopyrrolo[1,2-d][1,2,4]triazin-3(4H)yl)-N-(1-phenylethyl)acetamide]

EC50 [3]: 93 ± 15 nM
SMILES: Cc1ccc([C@H](C)NC(=O)Cn2ncc3c(C)cc(C)n3c2=O)cc1 [Compound I-18, (S)-2-(6,8-dimethyl-4-oxopyrrolo[1,2-d][1,2,4]triazin-3(4H)yl)-N-(1-(p-tolyl)ethyl)acetamide]

EC50 [3]: 13 ± 2 nM
SMILES: Cc1ccc2cnn(CC(=O)N[C@@H](C)c3ccccc3)c(=O)n12 [Compound I-14, (S)-2-(6-methyl-4-oxopyrrolo[1,2-d][1,2,4]triazin-3(4H)yl)-N-(1-phenylethyl)acetamide]
